#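 48-hour exposure; five concentrations; linearly interpolated endpoints. GI50 marks 50% less growth.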 Active and inactive are the calls of the source. No stated cut-off is given here; in the data, active = GI50 up to about 1.1 µM and inactive = higher.
# Experiments:
# Test in all cases: NCI-60 cell line screen, 48 h
# [1] = test system: NCI-H23
# [2] = test system: PC-3
# [3] = test system: HOP-18
# [4] = test system: SR
# [5] = test system: HL-60
# [6] = test system: OVCAR-8
# [7] = test system: COLO 205
# [8] = test system: NCI/ADR-RES
# [9] = test system: HCC 2998
# [10] = test system: OVCAR-4
# [11] = test system: A498
# [12] = test system: DU-145
# [13] = test system: SK-OV-3
# [14] = test system: HOP-62
# [15] = test system: UACC-257
# [16] = test system: Malme-3M
# [17] = test system: UO-31
# [18] = test system: KM12
# [19] = test system: NCI-H460
# [20] = test system: T47D
# [21] = test system: CAKI-1
# [22] = test system: MDA-MB-231
# [23] = test system: BT-549
# [24] = test system: SNB-19
# [25] = test system: U-251
# [26] = test system: OVCAR-3
# [27] = test system: UACC-62
# [28] = test system: HOP-92
# [29] = test system: MCF7
# [30] = test system: SF-295
# [31] = test system: NCI-H226
# [32] = test system: NCI-H522
# [33] = test system: A549
# [34] = test system: HT-29
# [35] = test system: HCT-116
# [36] = test system: SW-620
# [37] = test system: M19-MEL
# [38] = test system: SF-539
# [39] = test system: Hs-578T
# [40] = test system: SNB-75
# [41] = test system: LXFL 529
# [42] = test system: SN12C
# [43] = test system: SK-MEL-2
# [44] = test system: DMS-114
# [45] = test system: MDA-MB-435
# [46] = test system: SF-268
# [47] = test system: MOLT-4
# [48] = test system: SNB-78
# [49] = test system: IGROV-1
# [50] = test system: HCT-15
# [51] = test system: SK-MEL-5
# [52] = test system: KM-20L2
# [53] = test system: OVCAR-5
# [54] = test system: SK-MEL-28
# [55] = test system: EKVX
# [56] = test system: K562
# [57] = test system: MDA-N
# [58] = test system: RPMI-8226
# [59] = test system: RXF 393
# [60] = test system: XF498
# [61] = test system: CCRF-CEM
# [62] = test system: TK-10
# [63] = test system: RXF 631
# [64] = test system: DLD-1
# [65] = test system: LOX IMVI
# [66] = test system: DMS-273
# [67] = test system: M14
# [68] = test system: 786-0
# [69] = test system: ACHN
structure (smiles),measurement,setting,value
O=c1cnn(C2OC(CO)C(O)C2O)c(=S)[nH]1 (configuration not stated),GI50,[1],> 94000 nM (inactive)
same,GI50,[2],8730 nM (inactive)
same,GI50,[3],> 79100 nM (inactive)
same,GI50,[4],1020 nM (active)
same,GI50,[5],2050 nM (inactive)
same,GI50,[6],10600 nM (inactive)
same,GI50,[7],54100 nM (inactive)
same,GI50,[8],> 79300 nM (inactive)
same,GI50,[9],> 87100 nM (inactive)
same,GI50,[10],> 100000 nM (inactive)
same,GI50,[11],> 100000 nM (inactive)
same,GI50,[12],9400 nM (inactive)
same,GI50,[13],> 100000 nM (inactive)
same,GI50,[14],> 63700 nM (inactive)
same,GI50,[15],> 100000 nM (inactive)
same,GI50,[16],> 77800 nM (inactive)
same,GI50,[17],28200 nM (inactive)
same,GI50,[18],22300 nM (inactive)
same,GI50,[19],316 nM (active)
same,GI50,[20],> 100000 nM (inactive)
same,GI50,[21],2550 nM (inactive)
same,GI50,[22],> 100000 nM (inactive)
same,GI50,[23],> 100000 nM (inactive)
same,GI50,[24],43100 nM (inactive)
same,GI50,[25],3030 nM (inactive)
same,GI50,[26],> 54200 nM (inactive)
same,GI50,[27],19400 nM (inactive)
same,GI50,[28],> 100000 nM (inactive)
same,GI50,[29],10600 nM (inactive)
same,GI50,[30],11900 nM (inactive)
same,GI50,[31],> 100000 nM (inactive)
same,GI50,[32],16400 nM (inactive)
same,GI50,[33],2150 nM (inactive)
same,GI50,[34],13500 nM (inactive)
same,GI50,[35],1670 nM (inactive)
same,GI50,[36],5210 nM (inactive)
same,GI50,[37],43100 nM (inactive)
same,GI50,[38],66500 nM (inactive)
same,GI50,[39],> 100000 nM (inactive)
same,GI50,[40],> 100000 nM (inactive)
same,GI50,[41],11500 nM (inactive)
same,GI50,[42],> 82000 nM (inactive)
same,GI50,[43],20400 nM (inactive)
same,GI50,[44],29600 nM (inactive)
same,GI50,[45],> 100000 nM (inactive)
same,GI50,[46],11100 nM (inactive)
same,GI50,[47],938 nM (active)
same,GI50,[48],> 91200 nM (inactive)
same,GI50,[49],28700 nM (inactive)
same,GI50,[50],2090 nM
same,GI50,[51],> 55500 nM (inactive)
same,GI50,[52],28900 nM (inactive)
same,GI50,[53],> 78300 nM (inactive)
same,GI50,[54],> 100000 nM (inactive)
same,GI50,[55],> 100000 nM (inactive)
same,GI50,[56],589 nM (active)
same,GI50,[57],> 100000 nM (inactive)
same,GI50,[58],993 nM (active)
same,GI50,[59],> 100000 nM (inactive)
same,GI50,[60],> 100000 nM (inactive)
same,GI50,[61],2520 nM (inactive)
same,GI50,[62],> 100000 nM (inactive)
same,GI50,[63],14300 nM (inactive)
same,GI50,[64],8470 nM (inactive)
same,GI50,[65],1240 nM (inactive)
same,GI50,[66],2310 nM (inactive)
same,GI50,[67],> 100000 nM (inactive)
COc1cccc2c1C(=O)c1c(O)c3c(c(O)c1C2=O)C[C@@](O)(/C(C)=N\O)C[C@@H]3OC1CC(N)C(O)C(C)O1 (some centres not stated),GI50,[1],1260 nM (inactive)
same,GI50,[2],1360 nM (inactive)
same,GI50,[3],2180 nM (inactive)
same,GI50,[4],61.5 nM (active)
same,GI50,[5],218 nM (active)
same,GI50,[6],1150 nM (inactive)
same,GI50,[7],955 nM (active)
same,GI50,[9],834 nM (active)
same,GI50,[10],4460 nM (inactive)
same,GI50,[11],834 nM (active)
same,GI50,[12],1720 nM (inactive)
same,GI50,[13],2230 nM (inactive)
same,GI50,[14],1240 nM (inactive)
same,GI50,[15],1780 nM (inactive)
same,GI50,[16],755 nM (active)
same,GI50,[17],10000 nM (inactive)
same,GI50,[18],2390 nM (inactive)
same,GI50,[19],268 nM (active)
same,GI50,[20],723 nM (active)
same,GI50,[21],1930 nM (inactive)
same,GI50,[22],2510 nM (inactive)
same,GI50,[23],1720 nM (inactive)
same,GI50,[24],780 nM (active)
same,GI50,[25],766 nM (active)
same,GI50,[26],1450 nM (inactive)
same,GI50,[27],1120 nM (inactive)
same,GI50,[28],1080 nM (active)
same,GI50,[29],289 nM (active)
same,GI50,[30],1380 nM (inactive)
same,GI50,[31],1810 nM (inactive)
same,GI50,[32],315 nM (active)
same,GI50,[33],968 nM (active)
same,GI50,[34],1340 nM (inactive)
same,GI50,[35],883 nM (active)
same,GI50,[36],504 nM (active)
same,GI50,[37],743 nM (active)
same,GI50,[38],931 nM (active)
same,GI50,[39],1770 nM (inactive)
same,GI50,[40],501 nM (active)
same,GI50,[41],508 nM (active)
same,GI50,[68],1060 nM (active)
same,GI50,[42],741 nM (active)
same,GI50,[43],1100 nM (active)
same,GI50,[44],371 nM (active)
same,GI50,[45],8450 nM (inactive)
same,GI50,[69],1900 nM (inactive)
same,GI50,[46],931 nM (active)
same,GI50,[47],66.1 nM (active)
same,GI50,[48],1280 nM (inactive)
same,GI50,[49],760 nM (active)
same,GI50,[50],28700 nM
same,GI50,[51],643 nM (active)
same,GI50,[52],3000 nM (inactive)
same,GI50,[53],2700 nM (inactive)
same,GI50,[54],1640 nM (inactive)
same,GI50,[55],3190 nM (inactive)
same,GI50,[56],553 nM (active)
same,GI50,[57],1880 nM (inactive)
same,GI50,[58],592 nM (active)
same,GI50,[59],1410 nM (inactive)
same,GI50,[60],210 nM (active)
same,GI50,[61],187 nM (active)
same,GI50,[62],3240 nM (inactive)
same,GI50,[63],2240 nM (inactive)
same,GI50,[64],1950 nM (inactive)
same,GI50,[65],388 nM (active)
same,GI50,[66],454 nM (active)
same,GI50,[67],2280 nM (inactive)
COc1cccc2c1C(=O)c1c(O)c3c(c(O)c1C2=O)C[C@@](O)(C(=O)CO)CC3OC1CC(O)C(O)C(C)O1 (some centres not stated),GI50,[1],87.9 nM (active)
same,GI50,[2],274 nM (active)
same,GI50,[3],277 nM (active)
same,GI50,[4],< 10 nM (active)
same,GI50,[5],26.7 nM (active)
same,GI50,[6],256 nM (active)
same,GI50,[8],1130 nM (inactive)
same,GI50,[9],562 nM (active)
same,GI50,[10],1010 nM (active)
same,GI50,[11],171 nM (active)
same,GI50,[12],29.4 nM (active)
same,GI50,[13],235 nM (active)
same,GI50,[14],14.6 nM (active)
same,GI50,[15],453 nM (active)
same,GI50,[16],141 nM (active)
same,GI50,[17],421 nM (active)
same,GI50,[18],350 nM (active)
same,GI50,[19],< 10 nM (active)
same,GI50,[20],286 nM (active)
same,GI50,[21],185 nM (active)
same,GI50,[22],565 nM (active)
same,GI50,[23],279 nM (active)
same,GI50,[24],82.2 nM (active)
same,GI50,[25],67.9 nM (active)
same,GI50,[26],583 nM (active)
same,GI50,[27],125 nM (active)
same,GI50,[28],138 nM (active)
same,GI50,[29],< 10 nM (active)
same,GI50,[30],104 nM (active)
same,GI50,[31],21.8 nM (active)
same,GI50,[32],211 nM (active)
same,GI50,[33],104 nM (active)
same,GI50,[34],354 nM (active)
same,GI50,[35],55.3 nM (active)
same,GI50,[36],145 nM (active)
same,GI50,[37],218 nM (active)
same,GI50,[38],< 35.8 nM (active)
same,GI50,[40],167 nM (active)
same,GI50,[41],461 nM (active)
same,GI50,[68],103 nM (active)
same,GI50,[42],115 nM (active)
same,GI50,[43],608 nM (active)
same,GI50,[44],188 nM (active)
same,GI50,[45],834 nM (active)
same,GI50,[69],52.7 nM (active)
same,GI50,[46],210 nM (active)
same,GI50,[47],20.2 nM (active)
same,GI50,[48],1280 nM (inactive)
same,GI50,[49],333 nM (active)
same,GI50,[50],397 nM
same,GI50,[51],142 nM (active)
same,GI50,[52],592 nM (active)
same,GI50,[53],424 nM (active)
same,GI50,[54],789 nM (active)
same,GI50,[55],1720 nM (inactive)
same,GI50,[56],239 nM (active)
same,GI50,[57],562 nM (active)
same,GI50,[58],199 nM (active)
same,GI50,[59],238 nM (active)
same,GI50,[60],102 nM (active)
same,GI50,[61],21.7 nM (active)
same,GI50,[62],792 nM (active)
same,GI50,[63],188 nM (active)
same,GI50,[64],385 nM (active)
same,GI50,[65],108 nM (active)
same,GI50,[66],33 nM (active)
same,GI50,[67],361 nM (active)
